Reference: ChEMBL document CHEMBL1201862, “PubChem BioAssay data set” (2004)
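How tested: cells in 96-well plates exposed to compound for 48 hours at five concentrations. The concentration for 50% growth inhibition is given as GI50.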 Calls of active or inactive are those of the source. No stated cut-off is given here; in the data, active = GI50 up to about 1.1 µM and inactive = higher.

What was measured:
Experiment in all cases: NCI-60 cell line screen, 48 h
SF-268 = system: SF-268
SR = system: SR
A549 = system: A549
IGROV-1 = system: IGROV-1
SK-OV-3 = system: SK-OV-3
HL-60 = system: HL-60
A498 = system: A498
ACHN = system: ACHN
NCI-H226 = system: NCI-H226
K562 = system: K562
Malme-3M = system: Malme-3M
SNB-19 = system: SNB-19
U-251 = system: U-251
OVCAR-8 = system: OVCAR-8
NCI-H460 = system: NCI-H460
DU-145 = system: DU-145
PC-3 = system: PC-3
NCI/ADR-RES = system: NCI/ADR-RES
MCF7 = system: MCF7

Measured: GI50

O=C(NO)c1ccc(O)c(O)c1
inactive: SF-268 > 100 µM | SR 36.4 µM | A549 > 100 µM | IGROV-1 > 100 µM | SK-OV-3 > 100 µM | HL-60 9.77 µM | A498 > 100 µM | ACHN > 100 µM | NCI-H226 > 100 µM | K562 26.5 µM | Malme-3M > 100 µM | SNB-19 > 100 µM | U-251 > 100 µM | OVCAR-8 79.1 µM | NCI-H460 70.3 µM

CN(C)CCN(C)CCC(=O)/C=C/c1ccccc1
inactive: SF-268 30.5 µM | SR 7 µM | A549 > 71.6 µM | IGROV-1 > 47.9 µM | SK-OV-3 > 100 µM | HL-60 16.4 µM | A498 > 89.9 µM | ACHN 29.5 µM | NCI-H226 > 48.1 µM | K562 12.7 µM | Malme-3M 18.4 µM | SNB-19 > 93.3 µM | U-251 57.7 µM | OVCAR-8 21.2 µM | NCI-H460 > 100 µM

CN(C)c1ccc(/C=C2\CCCCCC2=O)cc1
inactive: SF-268 > 100 µM | SR > 100 µM | DU-145 > 100 µM | PC-3 65 µM | A549 > 100 µM | IGROV-1 > 100 µM | SK-OV-3 > 100 µM | HL-60 > 100 µM | A498 > 100 µM | ACHN 58.7 µM | NCI/ADR-RES > 100 µM | K562 > 100 µM | Malme-3M > 100 µM | SNB-19 > 100 µM | OVCAR-8 > 100 µM | NCI-H460 31.6 µM | MCF7 > 100 µM

Cc1cc2c(C)cc(=O)[nH]c2cc1N
inactive: SR > 100 µM | DU-145 > 100 µM | PC-3 34.8 µM | A549 > 100 µM | IGROV-1 > 100 µM | A498 > 100 µM | ACHN > 100 µM | NCI/ADR-RES > 100 µM | NCI-H226 > 100 µM | K562 > 100 µM | SNB-19 > 100 µM | U-251 72.9 µM | OVCAR-8 > 100 µM | NCI-H460 65.5 µM | MCF7 67.5 µM

CC(=O)OC(C)(C)[C@@H]1CC[C@]2(C)/C=C/[C@H](C)C[C@@H](O)C3=C(C)C[C@@H](O3)C12 (some centres not stated)
inactive: SF-268 > 100 µM | SR > 100 µM | A549 > 100 µM | IGROV-1 > 100 µM | SK-OV-3 > 100 µM | HL-60 > 100 µM | A498 > 100 µM | ACHN > 100 µM | NCI-H226 49.1 µM | K562 > 100 µM | Malme-3M > 100 µM | SNB-19 > 100 µM | U-251 > 100 µM | OVCAR-8 > 100 µM | NCI-H460 > 100 µM

O=S(=O)(O)c1c(Cl)cc(O)c2ncccc12
inactive: SR > 100 µM | DU-145 > 100 µM | PC-3 > 100 µM | A549 > 100 µM | IGROV-1 > 100 µM | A498 > 100 µM | ACHN > 100 µM | NCI/ADR-RES > 100 µM | NCI-H226 > 100 µM | K562 > 100 µM | SNB-19 > 100 µM | U-251 > 100 µM | OVCAR-8 > 100 µM | NCI-H460 > 100 µM | MCF7 > 100 µM

O=C(O)C1=C(C(=O)O)Oc2ccccc2O1
inactive: SF-268 > 100 µM | SR > 100 µM | A549 > 100 µM | IGROV-1 > 100 µM | SK-OV-3 > 100 µM | HL-60 > 100 µM | A498 > 100 µM | ACHN > 100 µM | NCI-H226 > 100 µM | K562 > 100 µM | Malme-3M > 100 µM | SNB-19 > 100 µM | U-251 > 100 µM | OVCAR-8 > 100 µM | NCI-H460 > 100 µM

O=C(/C=C/c1ccc2ccccc2c1)NCc1ccc(C(=O)NCCc2ccccc2)cc1
inactive: SF-268 > 100 µM | SR > 100 µM | DU-145 > 100 µM | PC-3 > 100 µM | A549 > 100 µM | SK-OV-3 > 100 µM | HL-60 43.7 µM | A498 > 100 µM | ACHN > 100 µM | NCI/ADR-RES > 100 µM | NCI-H226 43.5 µM | K562 52 µM | SNB-19 > 100 µM | U-251 > 100 µM | OVCAR-8 > 100 µM | NCI-H460 > 100 µM | MCF7 > 100 µM

CC1C(=O)O[C@H]2C1CC[C@@]1(C)[C@H](O)CC[C@@]13C[C@]2(O)OO3 (some centres not stated)
inactive: SF-268 > 100 µM | SR > 100 µM | A549 > 100 µM | IGROV-1 > 100 µM | SK-OV-3 > 100 µM | HL-60 > 100 µM | A498 > 100 µM | ACHN > 100 µM | NCI-H226 > 100 µM | K562 > 100 µM | Malme-3M > 100 µM | SNB-19 > 100 µM | U-251 > 100 µM | OVCAR-8 > 100 µM | NCI-H460 > 100 µM

CN(CCS(=O)(=O)N1C(=O)C2CCCN2C(=O)[C@@H]1Cc1ccccc1)C(=O)OCc1ccccc1 (some centres not stated)
inactive: SF-268 61.1 µM | SR 40 µM | A549 48 µM | IGROV-1 > 100 µM | SK-OV-3 > 100 µM | HL-60 10.7 µM | A498 35.5 µM | ACHN 28.3 µM | NCI-H226 37.8 µM | K562 33.4 µM | Malme-3M 65 µM | SNB-19 41.6 µM | U-251 56.2 µM | OVCAR-8 70.3 µM | NCI-H460 47.4 µM

C=C(C)C#CC(O)(C(=O)OC1CCN(C)CC1)C(C)C (configuration not stated)
inactive: SF-268 > 100 µM | SR > 100 µM | DU-145 > 100 µM | PC-3 > 100 µM | A549 > 100 µM | IGROV-1 > 100 µM | SK-OV-3 > 100 µM | HL-60 > 100 µM | ACHN > 100 µM | NCI/ADR-RES 29.4 µM | NCI-H226 > 100 µM | K562 > 100 µM | Malme-3M > 100 µM | SNB-19 > 100 µM | U-251 > 100 µM | OVCAR-8 > 100 µM | MCF7 > 100 µM

C=C(Cl)C(Cl)(CCl)CCC(Br)C(C)(C)Br (configuration not stated)
inactive: SF-268 > 10 µM | SR > 10 µM | DU-145 > 10 µM | PC-3 > 10 µM | A549 > 10 µM | IGROV-1 > 10 µM | SK-OV-3 > 10 µM | HL-60 > 10 µM | A498 > 10 µM | ACHN > 10 µM | NCI-H226 > 10 µM | K562 > 10 µM | SNB-19 > 10 µM | U-251 > 10 µM | OVCAR-8 > 10 µM | MCF7 > 10 µM
